Results reported in patent publication US8383666B2, “Pyrrole derivatives, preparation of same and therapeutic application thereof” (Sanofi, priority 2008, dated 2013).

Experiments:
[1] = target: T1, CB1 receptors present at the periphery (Mus musculus, UniProt P47746); test: blocking of the inhibitory effect of CP55940 on gastrointestinal transit; format: in vivo; conditions: per os at 10 mg/kg, mice
T1 construct: from tissue; host or cells: living mouse, peripheral (gastrointestinal) CB1 receptors
T1 sequence (P47746 whole entry): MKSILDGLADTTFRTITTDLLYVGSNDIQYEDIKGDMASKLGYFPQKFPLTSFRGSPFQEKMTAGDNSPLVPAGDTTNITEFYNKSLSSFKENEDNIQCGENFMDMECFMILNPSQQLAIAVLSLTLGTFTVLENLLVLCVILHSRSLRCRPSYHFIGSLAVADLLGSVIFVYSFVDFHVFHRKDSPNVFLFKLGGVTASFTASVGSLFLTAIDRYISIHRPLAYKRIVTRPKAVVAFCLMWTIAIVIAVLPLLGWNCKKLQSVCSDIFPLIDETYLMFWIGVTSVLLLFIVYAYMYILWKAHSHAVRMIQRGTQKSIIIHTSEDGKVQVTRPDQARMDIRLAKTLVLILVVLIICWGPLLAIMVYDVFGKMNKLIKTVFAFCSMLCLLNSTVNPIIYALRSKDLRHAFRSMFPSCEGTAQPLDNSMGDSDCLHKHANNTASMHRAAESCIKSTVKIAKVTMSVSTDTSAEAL

[2] = target: T2, CB1 receptors present in the brain (Mus musculus, UniProt P47746); test: Measurement (3): blocking of the hypothermic effect induced by CP55940; format: in vivo; parameters: [CB1 receptors present; from tissue; host or cells: living animal, brain CB1 receptors; conditions: iv at 10 mg/kg
T2 sequence (P47746 whole entry): as above
Excerpt: (§1) Preferably, this percentage is less than 40%, and more preferably less than 30%.

[3] = target: T2, CB1 receptors present in the brain; test: Measurement (2): ex vivo binding of [3H]-CP55940 in the brain after intravenous administration; parameters: the CB1 receptors present in the brain in mice; from tissue; host or cells: mouse brain (after intravenous dosing); conditions: iv at 10 mg/kg, mice, read-out: % inhibition of [3H]-CP55940 binding at the level of the brain
Excerpt: as §1

[4] = Measurement (1): quantification of compound in brain and plasma by LC-MS/MS; format: in vivo; conditions: iv at 3 mg/kg, according to measurement (1), mouse, read-out: Ratio: Amount present in the brain/Amount present in the plasma
Excerpt: as §1

SMILES | % reversion of the effect of CP55940 on GI transit [1] [%] | % reversion of the hypothermic effect of CP55940 [2] [%] | inhibition at 10 mg/kg [3] [%] | Kp [4]
Cn1c(C(=O)N2CCC(NCc3ccc(F)cc3)(C(N)=O)CC2)cc(-c2ccccc2Cl)c1-c1ccc(OCCCO)cc1 [Compound 24, 1-[4-(2-chlorophenyl)-5-[4-(3-hydroxypropoxy)phenyl]-1-methyl-1H-pyrrole-2-carbonyl]-4-(4-fluorobenzylamino)piperidine-4-carboxamide] | 100 | 20 | 1 | –
Cn1c(C(=O)N2CCC(NCc3cccc(F)c3)(C(N)=O)CC2)cc(-c2ccc(Cl)cc2Cl)c1-c1ccc(OCCCO)cc1 [Compound 11, 1-[4-(2,4-dichlorophenyl)-5-[4-(3-hydroxypropoxy)phenyl]-1-methyl-1H-pyrrole-2-carbonyl]-4-(3-fluorobenzylamino)piperidine-4-carboxamide] | – | 64 | 25 | –
Cn1c(C(=O)N2CCC(C(N)=O)(c3ccccc3)CC2)cc(-c2ccc(Cl)cc2Cl)c1-c1ccc(OCC(N)=O)cc1 [Compound 16, 1-[5-(4-carbamoylmethoxy)phenyl-4-(2,4-dichlorophenyl)-1-methyl-1H-pyrrole-2-carbonyl]-4-phenylpiperidine-4-carboxamide] | 76 | 3 | 8 | 0.05
